Like-named read-outs stand apart in the source and are kept apart here.

The target of assay [1] is Plk1 (Homo sapiens (Human), UniProt P53350). Put plainly: PLK1 inhibition assay (radioactive-phosphate incorporation). It is filed as biochemical. The conditions noted are these: Ki(app), read-out: PLK1 - 33P.ENZ - CB 10 Ki. The method in brief: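 Radioactive-phosphate incorporation with 15 nM Plk1 and 9 µM Sam68 substrate, 20 µM [γ-33P]ATP, in 25 mM HEPES pH 7.5, 10 mM MgCl2, 25 mM NaCl, 2 mM DTT, 1.5% DMSO, room temperature, 45 min. Stopped with TCA/cold ATP, filtered, scintillation counted. Ki(app) from non-linear regression of background-corrected initial rates.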

Assay [2] concerns HepG2 WFS1 KO. Put plainly: In vitro cell viability (CellTiter-Glo), HepG2 WFS1 KO. Type of assay: cell-based. The following applies: for IC50: 96 hours. The text has this: A double cleavage strategy was employed to remove large fragments from the WFS1 locus. Suitable target sites in WFS1 exon 8 were first selected using CRISPR design software to rank suitable target sites and computationally predict off-target sites for each intended target. Six top guide RNA sequences are identified and screened for activity using the Surveyor Mutation Detection Kit (Integrated DNA Technologies). Then, the best 2 guide RNAs were cloned into GeneArt OFP CRISPR nuclease vectors (Thermofisher, Cat #A21174) separately and co-transfected into HepG2 cells using nucleofection (4D Nucleofector X, Lonza). Cells were sorted by FACS 48 hrs later to enrich for the OFP positive cell population. The OFP positive cell population were plated into 96-well plates at 0.5-5 cells/well to isolate clonal cell lines. After allowing cells to expand for 2-3 weeks, plates were inspected for presence of colonies. When colonies became more than 70% confluent, they were dissociated with trypsin and were further expanded. Cell clones with homozygous double cleavage of WFS1 exon 8 were detected with PCR and confirmed with DNA sequencing.
HEK293 cells containing empty pCLPCx vector (HEK293 empty), HEK293 cells stably over-expression WFS1 (HEK293 WFS1), HepG2, and HepG2 cells where WFS1 was depleted via CRISPR/Cas9 (HepG2 WFS1 KO) cells were plated into 96-well black plates (Corning, product #3904) in 100 microliters of complete DMEM cell culture media [DMEM (Life Technologies, product #11960-051) media supplemented with 10% FBS (Hyclone, catalog #SH30071.03), antimycotic/antibiotic (Life Technologies, product #15240-062), and Glutamax (Life Technologies, product #35050-061)] at 1,000 (HEK293) or 5,000 (HepG2) cells per well. Cells were allowed to attach and grow overnight, after which compounds are added at various concentrations. Cell viability was assessed 96 hrs after compound addition with CellTiter-Glo reagent (Promega, catalog #G7570) according to manufacturer's protocol and measurement on a Pherastar luminescence plate reader (BMG Labtech).
To determine the effect of WFS1 depletion on compound mediated inhibition of cell viability, parental HepG2 cells and HepG2 cells where WFS1 was deleted by CRISPR/Cas9 were exposed to increasing concentrations of either Compound 136 or Compound 253 for 96 hours after which time viability was determined using Cell Titer Glo reagent (Promega). […] The IC50s for the viability of both the HepG2 parental and WFS1 knockout cells are summarized in Table 47: A<0.5 μM; 0.5 μM≤<2.0 μM; 2.0 μM≤C<10.0 μM; D≥[…].

Assay [3] has as its system non-small cell lung cancer (NSCLC) adenocarcinoma line D33966. The assay can be described thus: In vivo efficacy, NSCLC patient derived xenograft OD33966. The conditions noted are these: NSCLC PDX OD33966, oral, 100 mpk qd, treatment day 14. Further details: species or system nu/nu mice. The procedure:
Female immune deficient mice (Charles River, 4-6 wks age) were anesthetized with Ketamine-Xylazine (140 mg/kg-14 mg/kg ip) and shaved. Puralube eye ointment was applied to the eyes to prevent desiccation of the corneas. Betadine and 70% ethanol was applied to the shaved location to sterilize the skin at the location of the incision. The animals were placed in a biosafety cabinet for the duration of the surgery. Using scissors, an 8 to 10 mm incision was made in the lateral flank of the skin. A tumor fragment weighing between 50 and 150 mg was placed under the skin at the incision site using forceps, and staples were used to close the incision. The staples were removed 5 to 7 days after surgery. Starting approximately two weeks after implantation, animals were weighed, and tumors were measured using caliper twice weekly. Tumor volume was calculated using the formula: volume=length×width^2×0.52.
Compound administration began when xenografts reached approximately 100-300 mm3 and continued until control xenografts reached […] of the animal's body weight. Test compounds were administered orally by gastric gavage. Percent tumor growth inhibition (TG) was calculated on the indicated treatment day. Percent TGI is defined as: [1−(del T/del C)]×100%, where del T is the final minus initial average volumes of the treated group, and del C is the final minus initial average volumes of the control group. […] The tested compounds were administered orally. Vehicle control consisted of either 0.5% methylcellulose/0.1% sodium lauryl sulfate or 20% captisol. Tumor volumes were determined by caliper measurement twice a week.
A general note: A xenograft is tissue or cells of one species grown in another, often human tumour cells in immunodeficient mice.

Chain of Plk1 (P53350 whole entry, species assumed): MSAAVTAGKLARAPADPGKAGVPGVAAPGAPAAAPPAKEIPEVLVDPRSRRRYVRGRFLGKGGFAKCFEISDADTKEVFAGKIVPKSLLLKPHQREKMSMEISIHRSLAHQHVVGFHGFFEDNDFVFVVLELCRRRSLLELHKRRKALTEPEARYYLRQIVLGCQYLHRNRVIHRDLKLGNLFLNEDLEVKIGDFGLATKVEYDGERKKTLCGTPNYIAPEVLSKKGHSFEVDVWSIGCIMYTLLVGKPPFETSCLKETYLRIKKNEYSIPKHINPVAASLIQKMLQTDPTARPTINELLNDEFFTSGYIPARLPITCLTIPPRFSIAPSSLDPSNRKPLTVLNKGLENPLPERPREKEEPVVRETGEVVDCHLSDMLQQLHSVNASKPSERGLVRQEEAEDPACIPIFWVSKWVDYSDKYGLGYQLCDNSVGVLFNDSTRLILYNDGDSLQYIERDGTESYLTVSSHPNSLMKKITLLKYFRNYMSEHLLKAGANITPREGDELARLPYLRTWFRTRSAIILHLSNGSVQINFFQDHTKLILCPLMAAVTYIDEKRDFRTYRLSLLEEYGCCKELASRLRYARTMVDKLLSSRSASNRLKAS

As to `Cc1nc(NCc2cnn(Cc3ccc(C(F)(F)F)nc3)c2)nc2c1NC(=O)[C@H](C)N2C` [Compound 136, (7S)-4,7,8-trimethyl-2-(((1-((6-(trifluoromethyl)pyridin-3-yl)methyl)-111-pyrazol-4-yl)methyl)amino)-7,8-dihydropteridin-6(5H)-one], in assay [1], the Ki was over 4 µM. Moreover, the IC50 is at least 10 µM in assay [2] (HepG2 WFS1 knockout, read-out: HepG2 WFS1 KO viability); over 27 µM in assay [2] (cell viability, HepG2 WFS1 KO, Cell Titer Glo, read-out: IC50); at least 10 µM in assay [2] (cell viability, HepG2 WFS1 KO, read-out: IC50 class). Moreover, in assay [2] (cell viability, WFS1 KO vs parental HepG2, 96 hours), the “shift in IC50 on depletion of WFS1 from HepG2 cells” value is on record as “greater than 100 fold”. Further, the “% TGI” value in assay [3] amounted to 106.65%.

The values are drawn from patent publication US20230312587A1, “PTERIDINONE COMPOUNDS AND USES THEREOF” (Vertex Pharmaceutical Incorporated, priority 2018, published 2023).
